# Read-outs that look alike come from different tables or passages of the source.
# Experiments:
# SYK = target: T1, SYK (Homo sapiens, UniProt P43405); test: SYK activity in platelets; assay type: cell-based; settings: data not shown
# T1 construct: endogenous in cells; host or cells: platelets
# platelets = test: Collagen-induced platelet aggregation (aggregometer); assay type: cell-based, human; settings: for IC50: 30 min pretreatment
# Protocol: Platelet aggregation with respect to control was monitored in a Chronolog Model 560 Dual Chamber Platelet Aggregometer.
# Controls were treated with vehicle (PBS supplemented with 1% DMSO) alone. The treated PRP samples were diluted 1:4 with sterile normal saline and platelets were stimulated with collagen (2 μg/mL or 5 μg/mL, Chronolog Inc., Philadelphia, Pa.) or thrombin (0.1 U/mL, Chronolog Inc., Philadelphia, Pa.) as agonists under stirred conditions. Platelet aggregation was monitored in a platelet aggregometer (Model 560 Dual Chamber-Instrument, Chronolog Ind., Philadelphia, Pa.) for 5 minutes.
# mice = test: Toxicity of LFM-A13 in mice; settings: mice N=160, 12.5 mg/kg to 100 mg/kg i.p.
# Excerpt: For histopathologic studies, tissues were fixed in 10% neutral buffered formalin, dehydrated, and embedded in paraffin by routine methods.
structure (smiles),measurement,setting,value
"C/C(O)=C(\C#N)C(=O)Nc1cc(Br)ccc1Br [LFM-A13, α-cyano-β-hydroxy-β-methyl-N-(2,5-dibromophenyl)-propenamide]",baseline and collagen-induced SYK activity in platelets,SYK,did not inhibit the baseline activity of SYK or SRC or prevent collagen-induced SYK and SRC activation
same,collagen-induced platelet aggregation at 100 μM,"platelets; 100 μM, 30 minute pretreatment, 2 μg/mL collagen",completely prevented
same,IC50,"platelets; Homo sapiens, Platelet, read-out: IC50 inhibition of platelet aggregation, 2 μg/mL collagen",2.78 µM
same,IC50,"platelets; Homo sapiens, Platelet, read-out: IC50 inhibition of platelet aggregation, 5 μg/mL collagen",66.1 µM
same,"platelet response to high and low doses of collagen, PRP","platelets; PRP treated 20 min or 24 hours, collagen 2 or 5 μg/mL",significantly reduced
same,IC50,"platelets; read-out: IC50 inhibition of platelet aggregation, 2 μg/mL collagen",2.8 ± 0.93 µM
same,"toxicity, single i.p. bolus",mice,not toxic

# Source: patent US6589992B2, “Inhibiting collagen-induced platelet aggregation” (Parker Hughes Institute, priority 1999, dated 2003)
